We go through 1 compound from patent publication US4153695A, “Substituted 2,3-dihydro imidazo[1,2-c]pyrimidines” (priority 1978, dated 1979).

Assay [1] has as its system cutaneous Herpes simplex virus type 1. The experiment in a line: Topical treatment of cutaneous Herpes simplex virus type 1 lesions on guinea pig back, final score (Table 1). The assay is classed as in vivo, guinea pigs. Particulars: 1.0 % conc., lesions scored 0 to 4+. As for the experimental part: Three epilated areas on each guinea pig back were inoculated with approximately 1×10^5 plaque forming units of virus using a Sterneedle triggered 10 times for each area. Untreated guinea pigs so inoculated developed consistent rosette lesions in about 96 hours. All three areas on the back of each guinea pig were drug-treated and these compared with separate control animals which were treated with the particular vehicle employed for administering the drug. The positive control animals were treated with 0.5-1.0 percent phosphonoacetic acid (PAA) suspended in the same vehicle as the drug. Animals were inoculated on the morning of day 1 and treated on the afternoon of day 1. Two treatments per day were administered through day 5 for a total of 10 treatments. Hair was again epilated on day 5 and readings were begun then and taken daily through day 10. Lesions for each area were scored from 0 to 4+, which was a fully developed herpatic lesion with inflammation vesicles and pustules. An average score was then calculated for each drug for each day for the number of treated areas and control areas. Usually 3-6 guinea pigs were used per drug. After scoring, a final score or mean of means was calculated for drug-treated and for control areas. Table I which follows gives the results of determinations carried out as outlined above on compounds coming within the scope of this invention. In the table, column 1 gives the name of the drugs, column 2, the vehicle, column 3, the concentration; column 4, the number of animals used; and columns 5, the final score.

For assay [2], the system named is Herpes simplex virus. As to the kind of experiment: In vitro plaque inhibition of Herpes simplex virus in BSC-1 or Hela cells (Table 3). Particulars: 72 hours at 37° C. The format is cell-based. As for the experimental part: The compounds of this invention also have anti-viral activity in vitro against Herpes simplex virus.
African green monkey kidney cells (BSC-1) or Hela cells (5-3) were grown in 25 cc. Falcon flasks at 37° C. in medium 199 with 5 percent inactivated fetal bovine serum (FBS), penicillin (150 units 1 ml.) and streptomycin (150 mcg./ml.). When confluent monolayers were formed, the supernatant growth medium was removed and 0.3 ml. of an appropriate dilution of Herpes simplex virus was added to each flask. After adsorption for one hour at room temperature, the virus infected cell sheet was overlaid with a medium comprising one part of 1 percent Ionagar No. 2 and one part double strength medium 199 with FCS, (fetal calf serum) penicillin, and streptomycin and also containing drug at concentrations of 100, 50, 25, 12, 6 and 3 micrograms per milliliter (mcg./ml.). The flask containing no drug served as a control. The stock solutions of 2,3-dihydroimidazo[1,2-c]pyrimidine compounds were made up in dimethylsulfoxide dilution at a concentration of 10^4 mcg./ml. The flasks were incubated for 72 hours at 37° C. […] A solution of 10 percent formalin and 2 percent sodium acetate was added to each flask to inactivate the virus and fix the cell sheet to the surface of the flask. The virus plaques, irrespective of size, were counted after staining the surrounding cell areas with crystal violet. The plaque count was compared to the control count at each drug concentration. The activity of the test compound was expressed as percentage plaque inhibition. Table 3, which follows, embodies the results of these determinations. In the table, column 1 gives the name of the compound, columns 2 through 6, the percent inhibition of herpes simplex plaques at various mcg./ml. levels of drug.

In assay [3] the test system is Herpes simplex virus type I and Herpes simplex virus type II. The experiment in a line: Intravaginal treatment of Herpes simplex virus type I and type II infection in guinea pigs, final score (Table 2). The format is in vivo. As for the experimental part: A second in-vivo test against Herpes simplex virus type I and Herpes simplex virus type II was carried out as follows. Guinea pigs were inoculated intravaginally by swabing the vagina with an absorbent cotton swab containing 2×10^4 plaque forming units of the virus. Prior to the inoculation with the virus, the vagina was swabbed with physiological saline to remove potential virus inhibitors. Treatment was started four hours after inoculation and continued for four days. The drug in a suitable base was introduced into the vaginal area also with an absorbent cotton swab. Controls in which the vehicle only were swabbed were included. Beginning on day 5 after inoculation and continuing through day 10, each animal was examined and scored from 0 to 4+ for secretion, inflammation, vesiculation and necrosis, thus yielding a possible top score of +16 per guinea pig. In the table, column 1 gives the name of the compound; column 2, the vehicle; column 3, the concentration; column 4, the number of animals used; and columns 5, the final score.

Several values for one entry are separate records, joined by “and”; a condition that tells them apart may be missing. Equal entries are not always repeated.

With `CC1=NC(Cl)=CC2=NCCN12.Cl` [5-methyl-7-chloro-2,3-dihydroimidazo[1,2-c]pyrimidine hydrochloride], the “Final Score” value in assay [1] (vehicle B) is 2.06; in assay [1] (vehicle D) it was 1.56; in assay [1] (vehicle K), 1.95; in assay [1] (vehicle R), 1.81; in assay [3] (vehicle C, 2.5 % conc., top score +16), 7.9; in assay [3] (vehicle D, 2.0 % conc., top score +16), 6.13. In assay [3] (vehicle R, 2.0 % conc., top score +16, hydrochloride), the “Final Score” value is 3.17 and 3.57. In addition, the “PERCENT INHIBITION OF PLAQUES AT 50 mcg/ml” value in assay [2] (50 mcg/ml, hydrochloride) was determined as 82%. The inhibition at 6 µg/mL in assay [2] (72 h, 6 mcg/ml, read-out: PERCENT INHIBITION OF PLAQUES AT 6 mcg/ml) came out at 0%. Besides, the inhibition at 12 µg/mL in assay [2] (72 h, 12 mcg/ml, read-out: PERCENT INHIBITION OF PLAQUES AT 12 mcg/ml) was found to be 0%. The inhibition at 50 µg/mL in assay [2] (72 h, 50 mcg/ml, read-out: PERCENT INHIBITION OF PLAQUES AT 50 mcg/ml) came to 85%.
